Assay results as given in the NIST ThermoML archive (doi:10.1021/je2012555).

Columns and labels:
[1] = mn = molality of the nth substance listed, in mol/kg; conditions: 101 kPa, Liquid; for mass density: Vibrating tube method
[2] = cn = amount concentration of the nth substance listed, in mol/dm3; conditions: 298.15 K, 101 kPa, Liquid, Vibrating tube method

CNC(=O)[C@H](C)NC(C)=O [(S)-2-acetamido-N-methylpropanamide] + O
[1]
Conditions	apparent molar heat capacity [J/K/mol]	mass density [kg/m3]
298.15 K, m1 = 0.02067	–	997.447
298.15 K, m1 = 0.04272	–	997.844
298.15 K, m1 = 0.0448	431	–
298.15 K, m1 = 0.0545	429.7	–
298.15 K, m1 = 0.0683	431.5	–
298.15 K, m1 = 0.0751	–	998.437
298.15 K, m1 = 0.0909	429.6	–
298.15 K, m1 = 0.1031	–	998.944
298.15 K, m1 = 0.1226	–	999.278
298.15 K, m1 = 0.1376	427.5	–
298.15 K, m1 = 0.1431	–	999.644
298.15 K, m1 = 0.1816	–	1000.36
303.15 K, m1 = 0.0448	436.8	–
303.15 K, m1 = 0.0545	437.5	–
303.15 K, m1 = 0.0683	437.5	–
303.15 K, m1 = 0.0909	437	–
303.15 K, m1 = 0.1376	434.7	–
308.15 K, m1 = 0.0448	444	–
308.15 K, m1 = 0.0545	444.1	–
308.15 K, m1 = 0.0683	442.3	–
308.15 K, m1 = 0.0909	442.9	–
308.15 K, m1 = 0.1376	442.4	–
313.15 K, m1 = 0.0448	448	–
313.15 K, m1 = 0.0545	447.7	–
313.15 K, m1 = 0.0683	450.6	–
313.15 K, m1 = 0.0909	450.6	–
313.15 K, m1 = 0.1376	448.4	–
318.15 K, m1 = 0.0448	453.6	–
318.15 K, m1 = 0.0545	453.6	–
318.15 K, m1 = 0.0683	453.3	–
318.15 K, m1 = 0.0909	453.9	–
318.15 K, m1 = 0.1376	453.5	–
323.15 K, m1 = 0.0448	457.5	–
323.15 K, m1 = 0.0545	458.3	–
323.15 K, m1 = 0.0683	457.3	–
323.15 K, m1 = 0.0909	458.2	–
323.15 K, m1 = 0.1376	458	–
328.15 K, m1 = 0.0448	459.8	–
328.15 K, m1 = 0.0545	462.9	–
328.15 K, m1 = 0.0683	462.4	–
328.15 K, m1 = 0.0909	461.2	–
328.15 K, m1 = 0.1376	461.5	–

CNC(=O)[C@H](Cc1cnc[nH]1)NC(C)=O [N-acetyl-N'-methyl-L-alpha-histidinamide] + O
apparent molar heat capacity [J/K/mol], [1]
Conditions	m1 = 0.0546	m1 = 0.0551	m1 = 0.0616	m1 = 0.0777	m1 = 0.091	m1 = 0.109	m1 = 0.1358	m1 = 0.137
298.15 K	595.6	594.5	600.5	595.1	596.7	598.8	598.5	597.9
303.15 K	606.8	610.2	612	609.8	608.7	610.9	612.6	608
308.15 K	621.8	618.1	620.9	621.4	619.4	622.5	621	624.6
313.15 K	634	628.9	631.6	629.5	635.5	630.5	637.1	631.6
318.15 K	640.4	637	642.3	638	640.8	637.5	638.9	643.6
323.15 K	648.2	652	651.7	648.2	646.7	654	650.6	650.9
328.15 K	657.3	659.5	657	656.4	656.4	660.5	660	656

[2]
Conditions	mass density [kg/m3]
c1 = 0.03827	998.76
c1 = 0.04755	999.201
c1 = 0.04924	999.284
c1 = 0.05453	999.47
c1 = 0.05796	999.649
c1 = 0.06518	999.989
c1 = 0.0682	1000.14
c1 = 0.07517	1000.41
c1 = 0.07826	1000.59
c1 = 0.09152	1001.16
c1 = 0.0919	1001.16
c1 = 0.09948	1001.49
c1 = 0.1126	1002.02
c1 = 0.1188	1002.28
